Results reported in ChEMBL document CHEMBL4138135, “Optimization of physicochemical properties for 4-anilinoquinazoline inhibitors of trypanosome proliferation” (Eur J Med Chem, 2017).

Columns and labels:
[1] = Distribution coefficient, log D of the compound at pH 7.4; type: physicochemical; settings: octanol/water
[2] = Lipophilicity, log P of the compound; type: physicochemical; settings: octanol/water

| logD ([1]; read-out: logD) | logP ([2]; read-out: logP) | logD [1] | logP [2] | SMILES |
| --- | --- | --- | --- | --- |
| 4.5 | 4.7 |  |  | O=C(CN1CCOCC1)Nc1ccc2ncnc(Nc3ccc(OCc4cccc(F)c4)c(Cl)c3)c2c1 |
| 3 | 3.4 |  |  | c1cc(-c2ccc3ncnc(Nc4cccnn4)c3c2)cc(N2CCOCC2)c1 |
| 2.8 | 3 |  |  | Cc1nnc(Nc2ncnc3ccc(-c4cccc(N5CCOCC5)c4)cc23)nc1C |
| 2 | 2.9 |  |  | c1cnc(Nc2ncnc3ccc(-c4nccc(N5CCOCC5)n4)cc23)nc1 |
|  |  | 3.8 | 2.9 | c1cc(Nc2ncnc3ccc(-c4ccnc(N5CCOCC5)n4)cc23)ccn1 |
| 3.2 | 3.9 |  |  | CCn1nccc1Nc1ncnc2ccc(-c3cccc(N4CCOCC4)c3)cc12 |
|  | 3.8 |  |  | c1cc(-c2ccc3ncnc(Nc4cncs4)c3c2)cc(N2CCOCC2)c1 |
|  | 5 |  |  | Cc1cnc(Nc2ncnc3ccc(-c4cccc(N5CCOCC5)c4)cc23)s1 |
| 2.2 | 2.7 |  |  | O=c1nc(Nc2ncnc3ccc(-c4cccc(N5CCOCC5)c4)cc23)c(F)c[nH]1 |
|  |  | 3.1 | 2.8 | c1cc(-c2ccc3ncnc(Nc4ccnnc4)c3c2)cc(N2CCOCC2)c1 |
|  | 2.8 |  |  | c1cc(-c2ccc3ncnc(Nc4nccnn4)c3c2)cc(N2CCOCC2)c1 |
|  | 5.3 |  |  | Fc1cccc(COc2ccc(Nc3ncnc4ccc(-c5nnc(N6CCOCC6)[nH]5)cc34)cc2Cl)c1 |
|  | 4.3 |  |  | c1cc(-c2ccc3ncnc(Nc4nccs4)c3c2)cc(N2CCOCC2)c1 |
| 3.8 | 3.6 |  |  | COc1cnc(Nc2ncnc3ccc(-c4cccc(N5CCOCC5)c4)cc23)cn1 |
| 3.9 | 3.8 |  |  | c1cncc(Nc2ncnc3ccc(-c4cccc(N5CCOCC5)c4)cc23)c1 |
|  | 3.9 |  |  | Cc1cnnc(Nc2ncnc3ccc(-c4cccc(N5CCOCC5)c4)cc23)c1 |
|  | 3.6 |  |  | c1cc(-c2ccc3ncnc(Nc4ncco4)c3c2)cc(N2CCOCC2)c1 |
|  | 2.5 |  |  | O=c1nc(Nc2ncnc3ccc(-c4cccc(N5CCOCC5)c4)cc23)cc[nH]1 |

| logD ([1]; read-out: logD) | logP ([2]; read-out: logP) | logD [1] | logP [2] | SMILES |
| --- | --- | --- | --- | --- |
| 2.5 | 3.8 |  |  | c1cnc(Nc2ncnc3ccc(-c4cccc(N5CCOCC5)c4)cc23)nc1 |
|  | 6.5 |  |  | Fc1cccc(COc2ccc(Nc3ncnc4ccc(-c5nccc(N6CCOCC6)n5)cc34)cc2Cl)c1 |
| 2.5 | 2.9 |  |  | c1cnc(Nc2ncnc3ccc(-c4ccnc(N5CCOCC5)n4)cc23)nc1 |
| 3.1 | 3.2 |  |  | c1cc(-c2ccc3ncnc(Nc4cnccn4)c3c2)cc(N2CCOCC2)c1 |
|  |  | 3.4 | 3 | c1cc(Nc2ncnc3ccc(-c4nccc(N5CCOCC5)n4)cc23)ccn1 |
|  | 5.4 |  |  | COc1ccc(Nc2ncnc3ccc(-c4cccc(N5CCOCC5)c4)cc23)cc1Cl |
| 3.9 | 4.4 |  |  | c1ccc(Nc2ncnc3ccc(-c4cccc(N5CCOCC5)c4)cc23)nc1 |
|  | 5.1 |  |  | Fc1cccc(COc2ccc(Nc3ncnc4ccc(-n5nncc5CN5CCOCC5)cc34)cc2Cl)c1 |
|  | 3.5 |  |  | c1cc(-c2ccc3ncnc(Nc4nncs4)c3c2)cc(N2CCOCC2)c1 |
| 3.2 | 3.1 |  |  | c1cc(-c2ccc3ncnc(Nc4cncnc4)c3c2)cc(N2CCOCC2)c1 |
| 2.8 | 3.5 |  |  | Nc1cccnc1Nc1ncnc2ccc(-c3cccc(N4CCOCC4)c3)cc12 |
| 3.1 | 3.7 |  |  | c1cc(-c2ccc3ncnc(Nc4ccncn4)c3c2)cc(N2CCOCC2)c1 |
|  | 6.5 |  |  | Fc1cccc(COc2ccc(Nc3ncnc4ccc(-c5ccnc(N6CCOCC6)n5)cc34)cc2Cl)c1 |
| 2.9 | 3.9 |  |  | Cc1ccnc(Nc2ncnc3ccc(-c4cccc(N5CCOCC5)c4)cc23)n1 |
| 2.9 | 3.5 |  |  | Nc1ncccc1Nc1ncnc2ccc(-c3cccc(N4CCOCC4)c3)cc12 |
| 3.2 | 3.6 |  |  | CC(=O)Nc1cccnc1Nc1ncnc2ccc(-c3cccc(N4CCOCC4)c3)cc12 |
| 4.1 | 3.8 |  |  | c1cc(-c2ccc3ncnc(Nc4ccncc4)c3c2)cc(N2CCOCC2)c1 |
|  | 3.6 |  |  | Cc1cc(Nc2ncnc3ccc(-c4cccc(N5CCOCC5)c4)cc23)on1 |
